Source: PMC7708446, “^18F-meta-fluorobenzylguanidine (^18F-mFBG) to monitor changes in norepinephrine transporter expression in response to therapeutic intervention in neuroblastoma models” (Scientific Reports, 2020)
One block for each molecule: values may come before it.

How the values were obtained:
SK-N-BE(2)C cells = assay: Cell viability (CellTiter-Glo) after 72 h AZD2014, SK-N-BE(2)C; format: cell-based; conditions: Homo sapiens, read-out: GI50 (concentration that reduced cell viability by 50%)
Experimental: (§1) To assess the cellular response to mTORC1/2 inhibition, Kelly and SK-N-BE(2)C cell lines, both of which over-express MYCN protein (Fig. 1b), were incubated with AZD2014 (0 to 1 µM) for 72 h. […] Key substrates of AZD2014- induced mTORC1/2 inhibition were assessed by WB.
(§2) Supplementary Figure 5: NB cell viability after 72 h treatment with AZD2014 (0–1 µM) analysed by Celltiter Glo assay. Data presented as mean ± SEM, n ≥ 3 per group, performed in triplicate. Graph is generated using GraphPad Prism (v 8.4.1), https://www.graphpad.com.

mTORC1/2 [1] = assay: Western blot of mTORC1/2 substrates in Kelly and SK-N-BE(2)C cells; format: cell-based, human
Experimental: (§3) Western blotting (WB) was performed as previously described. Antibodies were obtained from Cell Signalling Technologies (London, UK) unless stated otherwise: GAPDH, beta-actin, p-Akt^S473, Akt, p-4EBP1^T37/46, p-S6^S240/244, S6, N-MYC (Merck Millipore, Watford, UK), NET-1 (mAbTechnologies, Stone Mountain, Georgia), anti-rabbit HRP, anti-mouse HRP. Blots were visualised with SuperSignal West Pico and Femto Chemiluminescent Substrate (Thermo Fisher Scientific, Loughborough, UK) and ChemiDoc XRS + System (BioRad, Watford, UK). Data were processed and band density analysed with ImageJ and Image Lab 6.0 (BioRad, Watford, UK).

Kelly xenografts = assay: AZD2014 treatment of Kelly xenograft mice (body weight, tumour growth); format: in vivo; conditions: 25 mg/kg/day
Experimental: All studies were conducted in compliance with licenses issued under the UK Animals (Scientific Procedures) Act 1986 and approved by the Institute of Cancer Research Animal Welfare and Ethical Review Body (AWERB) according to the United Kingdom National Cancer Research Institute Guidelines for Animal Welfare in Cancer Research (project license PCC916B22, Animals in Science Regulation Unit, Home Office Science, London, UK)[65]. […]; 20–22 g) obtained from an in-house breeding colony were used in the studies. Animals were housed in a temperature-controlled facility with 12 h on–12 h off light cycle and provided water and laboratory rodent food ad libitum. Subcutaneous xenografts were generated by injection of either Kelly (5 × 10^6/0.1 mL PBS/Matrigel 30% v/v; BD Matrigel Matrix, BD Bioscience, San Jose, California, US) or SK-N-BE(2)C (1 × 10^6/0.1 mL PBS/Matrigel) into the lower flank. For the treatment studies, AZD2014 stock solution in DMSO was diluted in PEG400 to a final concentration of 2 mg/mL (10% DMSO maximum). When tumours reached ~ 100 mm^3 (calliper measurements using formula: Volume = (Width(2) × Length)/2), mice were treated daily, for a total of either 1, 3 or 7 days, by oral gavage with AZD2014 (20 or 25 mg/kg/day) or vehicle control. Mice were monitored daily for body weight or other adverse effects.

Kelly cells = assay: Cell viability (CellTiter-Glo) after 72 h AZD2014, Kelly; format: cell-based; conditions: Homo sapiens, read-out: GI50 (concentration that reduced cell viability by 50%)
Experimental: as §1, §2

NET-1 [2] = assay: Western blot of total NET-1 protein in SK-N-BE(2)C cells after AZD2014; format: cell-based, human; conditions: seen at 24 h, maintained at 72 h
Experimental: Given the potential role of Akt in NET-1 protein synthesis and surface expression, we further looked at NET-1 protein levels following AZD2014 treatment. […] In Kelly cells, the WB analysis was not sensitive enough to detect and accurately quantify the inherently low expression of the target protein.
as §3

NET-1 [3] = assay: Radiotracer cell uptake after AZD2014 pre-treatment, Kelly cells; format: cell-based, human; conditions: for increase of ^18F-mFBG uptake: vs untreated control
Experimental: (§4) To investigate potential changes in NET-1 function following an AZD2014-induced increase in protein expression, ^18F-mFBG and ^123I-mIBG cell uptake assays were performed in Kelly and SK-N-BE(2)C cells incubated with the drug (0–500 nM) for 24 and 72 h. […] Perhaps due to the already high expression of NET-1, increase in radiotracer uptake was less evident in SK-N-BE(2)C cells (39 ± 9% and 62 ± 5%, respectively). […].
(§5) To test the response of cell uptake using the mTOR1/2 inhibitor AZD2014 (0–500 nM) (vistusertib, Stratech Scientific, Ely, UK), a stock solution of the drug (10 mM) in dimethyl sulfoxide (DMSO, Sigma Aldrich, Gillingham, UK) was initially prepared and then diluted in culture medium to a final DMSO concentration of < 0.1%. Radiotracer uptake was assessed in cells 24 and 72 h after incubation with AZD2014. The uptake was normalised to cell viability as performed using the CellTiter-Glo assay (Promega, Southampton, UK). The data are expressed as the average of n = 3 independent experiments (performed in triplicate) ± SEM.

NET-1 [4] = biological target: T1, NET-1 (Homo sapiens, UniProt P23975); assay: Radiotracer cell uptake after AZD2014 pre-treatment, SK-N-BE(2)C cells; format: cell-based; conditions: for increase of ^18F-mFBG uptake: vs untreated control
T1 construct: SK-N-SH, SK-N-BE(2)C, Kelly, NBLS human NB cell lines; endogenous in cells; host or cells: SK-N-SH, SK-N-BE(2)C, Kelly, NBLS human neuroblastoma cell lines
Experimental: as §4, §5

mTORC1/2 [5] = assay: Ex vivo IHC/Western blot of mTOR signalling in treated tumours; parameters: species or system mice; conditions: Kelly xenografts 25 mg/kg/day, 3 days
Experimental: as §3
Formalin-fixed (10% v/v) paraffin-embedded tumours were sectioned to a thickness of 5 µm. Tumour sections underwent heat-induced epitope retrieval with a citric acid based antigen unmasking solution (H3300, Vector Laboratories, Peterborough, UK). The primary NET-1 antibody (AMT-002, Alomone Labs, Jerusalem, Israel), p-S6^S240/244 and p-4EBP1^T37/46 were added and incubated overnight at 4 °C. Endogenous peroxidases were blocked (2% H2O2 in methanol, 10 min, RT) before incubation with a secondary HRP-conjugated antibody. For chromogen development, slides were processed using a diaminobenzidine (DAB)-peroxidase substrate kit (4 min, Immpact DAB, SK-4105, Vector Laboratories, Peterborough, UK). […]

NET-1 [6] = assay: Ex vivo Western blot of NET-1 in tumour lysates of treated animals; parameters: species or system mice
Experimental: as §3

[7] = Biodistribution and PET statements pooled over Kelly and SK-N-BE(2)C xenograft-bearing mice; format: in vivo; conditions: ^123I-mIBG 24 h p.i.
Experimental: When the tumours reached approximately 100–200 mm^3, mice were anaesthetised with an isoflurane/O2 mixture (1.5–2.0% v/v) and intravenously injected with either ^18F-mFBG (~ 7.5 MBq) or ^123I-mIBG (~ 20 MBq). Mice were then imaged using an Albira PET/SPECT/CT scanner (Bruker, Coventry, UK). […] Acquisition, reconstruction and image analysis were performed as described previously. Following the final scan, the mice were sacrificed and the major organs were excised, weighed and their associated radioactivity was measured using a γ-counter. Biodistribution and image quantification were expressed as a percentage of injected dose per gram of tissue (%ID/g), whereby 1 cm^3 on PET acquisitions were assumed to equal 1 g (n ≥ 3 mice ± SD).

NET-1 [8] = biological target: T1, NET-1; assay: ^18F-mFBG / ^123I-mIBG uptake in NB cell lines with and without desipramine; format: cell-based; conditions: 1 h at 37 °C, rank among Kelly, SK-N-SH, NBLS
From the text: Figure 1 (a) Simplified radiosynthesis scheme of ^18F-mFBG by copper-mediated deborylation. (b) Total NET-1 protein expression in selected NB cell lines determined by Western blot. Full length blots are presented in Supplementary Figure WB1. […] Data are presented as mean ± SEM, n ≥ 2 per group, performed in triplicate. Graphs are generated using GraphPad Prism (v 8.4.1), https://www.graphpad.com.
For each cell line the cell-associated radioactivity was normalised to the number of cells and then each group was presented as a percentage of the signal acquired for SK-N-BE(2)C cells (mean of n = 3 independent experiments performed in triplicate ± SEM).

NB tumours = test system: NB tumours; parameters: method as in PMID 15490487, PMID 3181182, PMID 22700000; conditions: NB patients; cited from earlier work
[9] = Kelly and SK-N-BE(2)C, Western blot

T1 sequence (P23975 whole entry): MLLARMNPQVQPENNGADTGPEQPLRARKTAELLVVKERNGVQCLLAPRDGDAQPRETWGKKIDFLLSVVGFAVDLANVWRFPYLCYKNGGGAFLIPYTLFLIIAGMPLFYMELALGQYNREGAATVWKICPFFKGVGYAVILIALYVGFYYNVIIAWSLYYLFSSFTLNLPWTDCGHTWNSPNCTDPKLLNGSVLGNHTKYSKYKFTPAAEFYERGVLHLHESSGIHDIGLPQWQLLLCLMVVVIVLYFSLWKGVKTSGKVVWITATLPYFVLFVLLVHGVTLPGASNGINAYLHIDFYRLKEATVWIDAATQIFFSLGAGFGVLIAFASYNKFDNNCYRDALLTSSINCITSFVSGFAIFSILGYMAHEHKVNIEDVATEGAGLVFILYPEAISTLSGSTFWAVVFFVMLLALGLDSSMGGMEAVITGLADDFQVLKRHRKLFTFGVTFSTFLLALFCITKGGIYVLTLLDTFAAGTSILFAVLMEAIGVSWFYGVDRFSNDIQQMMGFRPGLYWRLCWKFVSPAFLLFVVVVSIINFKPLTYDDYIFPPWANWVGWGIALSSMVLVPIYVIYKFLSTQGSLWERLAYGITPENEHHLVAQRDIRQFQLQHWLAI

GI50 (SK-N-BE(2)C cells): 307 nM
increase of ^18F-mFBG uptake (NET-1 [4]; 200 nM AZD2014, 72 h): 39 ± 9%
increase of ^18F-mFBG uptake (NET-1 [4]; 500 nM AZD2014, 72 h): 62 ± 5%
^123I-mIBG and ^18F-mFBG uptake (NET-1 [4]; AZD2014 0–500 nM, 24 h): concentration-dependent increase
Compound: CNC(=O)c1cccc(-c2ccc3c(N4CCOC[C@@H]4C)nc(N4CCOC[C@@H]4C)nc3n2)c1 [AZD2014]
MYCN protein expression (mTORC1/2 [1]; [9]): not robustly reduced
phosphorylation of S6 and 4EBP1 (mTORC1/2 [1]; [9]): concentration dependent decrease
p-Akt^S473 inhibition (mTORC1/2 [1]; both cell lines, after 72 h incubation): not sustained
p-Akt^S473 (mTORC1/2 [1]; both cell lines, early time points (3–12 h)): concentration-dependent downregulation
body weight lost compared to the vehicle control (Kelly xenografts; oral gavage, 3 days post-treatment initiation): ~ 10%
tumour growth (Kelly xenografts; Kelly xenografts, n = 3, p < 0.0001): impeded
GI50 (Kelly cells): 476 nM
total NET-1 protein expression (NET-1 [2]): prominent and persistent increase
increase of ^18F-mFBG uptake (NET-1 [3]; 200 nM AZD2014, 72 h): 128 ± 23%
increase of ^18F-mFBG uptake (NET-1 [3]; 500 nM AZD2014, 72 h): 292 ± 27%
^123I-mIBG and ^18F-mFBG uptake (NET-1 [3]; AZD2014 0–500 nM, 24 h): concentration-dependent increase
mTORC1/2 inhibition in vivo (p-S6^S240/244, p-4EBP1^T37/46 IHC) (mTORC1/2 [5]): failed to inhibit
NET-1 expression in tumour lysates, control vs treated (NET-1 [6]; Kelly, 25 mg/kg/day 3 days, p = 0.84, n = 2): no difference
NET-1 expression in tumour lysates (NET-1 [6]; SK-N-BE(2)C, 20 mg/kg/day 3 days, not significant (p = 0.07, n = 4)): increase

Tumour-to-background ratios compared with ^18F-mFBG [7]: greater
cell-associated radioactivity, SK-N-BE(2)C (NET-1 [8]): greatest uptake
cell-associated radioactivity, Kelly (NET-1 [8]; SK-N-BE(2)C): least uptake
Compound: NC(N)=NCc1cccc(I)c1 [^123I-mIBG, meta-iodobenzylguanidine, reference compound]

Compound: N=C(N)NCc1cccc([131I])c1 [^131I-mIBG, meta-iodobenzylguanidine]
clinical response (NB tumours): 0 to 57%
